From patent US11358711B2, “Tetracyclic heterocycle compounds useful as HIV integrase inhibitors” (Merck Sharp & Dohme Corp., priority 2019, dated 2022)
Read-outs that look alike come from different tables or passages of the source.

Tested on: HIV-1 (NL4-3 strain)
Test: Assay for inhibition of HIV replication (VIKING; MT4-gag-GFP reporter cell line)
Type: cell-based
Procedure: This assay is a kinetic assay that employs a reporter cell line (MT4-gag-GFP) to quantify the number of new cells infected in each round of replication.
MT4-GFP cells (250,000 cells/ml) were bulk-infected with HIV-1 (NL4-3 strain) at low multiplicity of infection (MOI) in RPMI cell culture medium+10% FBS for 24 hours. Cells were then washed once in RPMI cell culture medium+10% FBS and resuspended in RPMI cell culture medium+0% or 10% or 100% normal human serum (NHS). Test compounds were serial-diluted in DMSO on an ECHO® liquid handler. The infected MT4-GFP cells were added to a 384-well poly-D-lysine coated black plate with clear bottom in which the diluted test compounds were placed. The cells were seeded at 8,000 cells per well and the final DMSO concentration was 0.4%. The infected cells (Green GFP cells) were quantified at both 24 and 48 hours post incubation using Acumen eX3. Viral reproductive ratio (R0) was determined using the number of infected cells at 48 hours divided by the number of infected cells at 24 hours. Percent viral growth inhibition was calculated by [1−(R−Rtripledrug)/(RDMSO−Rtripledrug)]*100. Compound potency IP or IC50 was determined by a 4-parameter dose response curve analysis. In vitro potency in the cell-based assay in the abscence of normal human serum (NHS) and the presence of 100% NHS.

[1] = Human immunodeficiency virus 1, NL43, MT4-GFP cells infected with HIV-1 NL4-3, 0% normal human serum (NHS), read-out: VIKING IP50 (nM) with 0% NHS
[2] = Human immunodeficiency virus 1, NL43, MT4-GFP cells infected with HIV-1 NL4-3, 100% normal human serum (NHS), read-out: VIKING IP50 (nM) with 100% NHS
[3] = MT4-GFP cells infected with HIV-1 NL4-3, 0% normal human serum (NHS), read-out: VIKING IP50 (nM) with 0% NHS
[4] = MT4-GFP cells infected with HIV-1 NL4-3, 100% normal human serum (NHS), read-out: VIKING IP50 (nM) with 100% NHS

| Structure (SMILES) | IC50 [1] [nM] | IC50 [2] [nM] | IC50 [3] [nM] | IC50 [4] [nM] |
| --- | --- | --- | --- | --- |
| C[C@H]1COC2C3CCc4c(C(=O)NCc5cccc(Cl)c5F)c(=O)c(O)c(n43)C(=O)N21 (stereo partly drawn) [Compound 30] | 0.536 | 838 |  |  |
| O=C1c2c(O)c(=O)c(-c3cnn(Cc4ccc(F)cc4F)c3)c3n2C(CC3)C2OCCN12 (stereo not drawn) [Compound 46] | 34.5 | 222 |  |  |
| C[C@@H]1CCOC2C3CCc4c(C(=O)NCc5ccc(F)cc5F)c(=O)c(O)c(n43)C(=O)N21 (stereo partly drawn) [Compound 60] | 0.934 | 27.6 |  |  |
| COC1CC2C3OCCN3C(=O)c3c(O)c(=O)c(C(=O)NCc4ccc(F)cc4F)c1n32 (stereo not drawn) [Compound 72] |  |  | 0.754 | 8000 |
| CC1C2C3CCc4c(C(=O)NCc5cccc(Cl)c5F)c(=O)c(O)c(n43)C(=O)N2C[C@@H]1C (stereo partly drawn) [Compound 102] |  |  | 1.05 | 579 |
| C[C@H]1CN(S(C)(=O)=O)C2C3CCc4c(C(=O)NCc5cccc(Cl)c5F)c(=O)c(O)c(n43)C(=O)N21 (stereo partly drawn) [Compound 116] |  |  | 4.57 | 195 |
